Source: ChEMBL document CHEMBL5046264, “Cyclotides Chemosensitize Glioblastoma Cells to Temozolomide” (J Nat Prod, 2022)
“And” between values parts separate entries of the source, which are not always exact repeats. Identical values can stand only once. The source made the active and inactive calls. The rule behind the calls is not given here. Positions of bridges follow the written chain, without caps; N, C: chain ends. Residues, ends and D or L forms follow the SMILES beside them.

How the values were obtained:
[1] = test system: SH-SY5Y; assay: Cytotoxicity against human SH-SY5Y cells assessed as TMZ-induced cell death at 2.15 uM cotreated with 54.05 uM of TMZ incubated upto 72 hrs by MTT assay; assay type: functional; conditions: time hrs <=72
[2] = test system: U-87 MG; assay: Cytotoxicity against human U-87 MG cells assessed as cell viability using raw interpretation method; assay type: functional, cell-based, U-87MG ATCC
[3] = test system: SH-SY5Y; assay: Cytotoxicity against human SH-SY5Y cells assessed as cell viability at 5 uM upto 72 hrs by MTT assay; assay type: functional; conditions: time hrs <=72, read-out: Activity
[4] = test system: U-87 MG; assay: Induction of morphological changes in human U-87 MG cells assessed as swollen nuclei at 4.4 uM cotreated with 352 uM of TMZ measured after 72 hrs by phase contrast microscopy; assay type: functional, cell-based; conditions: U-87MG ATCC
[5] = test system: SH-SY5Y; assay: Cytotoxicity against human SH-SY5Y cells assessed as TMZ-induced cell death at 0.27 to 2.15 uM cotreated with 216.2 uM of TMZ incubated upto 72 hrs by MTT assay; assay type: functional; conditions: dose 0.27-2.15 µM, time hrs <=72
[6] = test system: U-87 MG; assay: Induction of morphological changes in human U-87 MG cells assessed as membrane blebbing at 4.4 uM cotreated with 352 uM of TMZ measured after 72 hrs by phase contrast microscopy; assay type: functional, cell-based; conditions: U-87MG ATCC
[7] = test system: SH-SY5Y; assay: Cytotoxicity against human SH-SY5Y cells assessed as cell viability using raw interpretation method; assay type: functional, cell-based
[8] = test system: U-87 MG; assay: Cytotoxicity against human U-87 MG cells assessed as cell viability at 5 uM upto 72 hrs by MTT assay; assay type: functional, U-87MG ATCC; conditions: time hrs <=72, read-out: Activity
[9] = test system: U-87 MG; assay: Induction of morphological changes in human U-87 MG cells assessed as appearance of shrunken cell bodies at 4.4 uM measured after 72 hrs by phase contrast microscopy; assay type: functional, cell-based; conditions: U-87MG ATCC
[10] = test system: U-87 MG; assay: Cytotoxicity against human U-87 MG cells using best fit nonlinear regression analysis; assay type: functional, cell-based, U-87MG ATCC
[11] = test system: U-87 MG; assay: Induction of morphological changes in human U-87 MG cells assessed as cell death at 4.4 uM cotreated with 352 uM of TMZ measured after 72 hrs by phase contrast microscopy; assay type: functional, cell-based; conditions: U-87MG ATCC
[12] = test system: U-87 MG; assay: Effect on cell morphology in human U-87 MG cells at 4.4 uM cotreated with 352 uM of TMZ measured after 72 hrs by phase contrast microscopy; assay type: functional, cell-based; conditions: U-87MG ATCC
[13] = test system: SH-SY5Y; assay: Cytotoxicity against human SH-SY5Y cells using best fit nonlinear regression analysis; assay type: functional, cell-based
[14] = test system: U-87 MG; assay: Cytotoxicity against human U-87 MG cells assessed as TMZ-induced cell death at 4.5 uM cotreated with 352 to 1408 uM of TMZ incubated upto 72 hrs by MTT assay; assay type: functional, cell-based; conditions: U-87MG ATCC, time hrs <=72
[15] = test system: U-87 MG; assay: Induction of morphological changes in human U-87 MG cells assessed as membrane blebbing at 4.4 uM measured after 72 hrs by phase contrast microscopy; assay type: functional, cell-based; conditions: U-87MG ATCC
[16] = test system: U-87 MG; assay: Cytotoxicity against human U-87 MG cells by sulforhodamine B assay; assay type: functional, cell-based, U-87MG ATCC
[17] = test system: U-87 MG; assay: Cytotoxicity against human U-87 MG cells assessed as TMZ-induced cell death at 4.4 uM cotreated with 352 uM of TMZ measured after 72 hrs by phase contrast microscopy; assay type: functional, cell-based; conditions: U-87MG ATCC
[18] = test system: SH-SY5Y; assay: Cytotoxicity against human SH-SY5Y cells assessed as TMZ-induced cell death at 2.15 uM cotreated with 108.1 uM of TMZ incubated upto 72 hrs by MTT assay; assay type: functional; conditions: time hrs <=72
[19] = test system: U-251; assay: Cytotoxicity against human U-251 cells by sulforhodamine B assay; assay type: functional, cell-based
[20] = test system: U-87 MG; assay: Cytotoxicity against human U-87 MG cells assessed as cell viability at 10000 uM incubated upto 72 hrs by MTT assay; assay type: functional, U-87MG ATCC; conditions: time hrs <=72, read-out: Activity
[21] = test system: U-87 MG; assay: Induction of morphological changes in human U-87 MG cells assessed as appearance of shrunken cell bodies at 1408 uM measured after 72 hrs by phase contrast microscopy; assay type: functional, U-87MG ATCC
[22] = test system: U-87 MG; assay: Cytotoxicity against human U-87 MG cells assessed as cell viability at 100 uM incubated upto 72 hrs by MTT assay; assay type: functional, U-87MG ATCC; conditions: time hrs <=72, read-out: Activity
[23] = test system: SH-SY5Y; assay: Cytotoxicity against human SH-SY5Y cells assessed as cell viability at 500 uM incubated upto 72 hrs by MTT assay; assay type: functional; conditions: time hrs <=72, read-out: Activity
[24] = test system: U-87 MG; assay: Cytotoxicity against human U-87 MG cells assessed as cell viability at 2000 uM incubated upto 72 hrs by MTT assay; assay type: functional, U-87MG ATCC; conditions: time hrs <=72, read-out: Activity
[25] = test system: U-87 MG; assay: Cytotoxicity against human U-87 MG cells assessed as cell death at 352 uM incubated upto 72 hrs by MTT assay; assay type: functional, U-87MG ATCC; conditions: time hrs <=72
[26] = test system: SH-SY5Y; assay: Cytotoxicity against human SH-SY5Y cells assessed as cell viability at 100 uM incubated upto 72 hrs by MTT assay; assay type: functional; conditions: time hrs <=72, read-out: Activity
[27] = test system: U-87 MG; assay: Induction of morphological changes in human U-87 MG cells assessed as membrane blebbing at 1408 uM measured after 72 hrs by phase contrast microscopy; assay type: functional, U-87MG ATCC
[28] = test system: SH-SY5Y; assay: Cytotoxicity against human SH-SY5Y cells assessed as cell viability at 2000 uM incubated upto 72 hrs by MTT assay; assay type: functional; conditions: time hrs <=72, read-out: Activity
[29] = test system: U-87 MG; assay: Induction of morphological changes in human U-87 MG cells assessed as appearance of undergoing apoptosis at 1408 uM measured after 72 hrs by phase contrast microscopy; assay type: functional, U-87MG ATCC

With `CC[C@H](C)[C@@H]1NC(=O)[C@H](C)NC(=O)[C@H](CO)NC(=O)[C@H](CO)NC(=O)[C@H]([C@@H](C)CC)NC(=O)[C@@H]2CSSC[C@@H]3NC(=O)[C@H](C(C)C)NC(=O)[C@H](CCCCN)NC(=O)[C@H](CO)NC(=O)[C@H](CCCCN)NC(=O)[C@@H]4CSSC[C@H](NC(=O)[C@H](CO)NC(=O)[C@H](CCC(=O)O)NC(=O)CNC(=O)[C@H](CSSC[C@H](NC(=O)CNC1=O)C(=O)N[C@@H](CO)C(=O)N4)NC(=O)[C@@H]1CCCN1C(=O)[C@H]([C@@H](C)CC)NC(=O)CNC(=O)[C@H](CC(N)=O)NC(=O)[C@H](CCCNC(=N)N)NC(=O)[C@H](Cc1ccc(O)cc1)NC3=O)C(=O)N[C@@H](C(C)C)C(=O)N[C@@H](Cc1c[nH]c3ccccc13)C(=O)N[C@@H]([C@@H](C)CC)C(=O)N1CCC[C@H]1C(=O)N2` (cyclo(AIGCSCKSKVCYRNGIPCGESCVWIPCISS); disulfide 4-18, 6-22, 11-27) the Activity [1] was <20%, the IC50 [2] was 5.66 µM and the viability at 5 µM [3] was 11.5%. For the same compound, the Activity [4] was “Active”, the Activity [5] was 40% and the Activity [6] was “Active”. The IC50 [7] was 3.07 µM, the viability at 5 µM [8] was 54.7% and the Activity [9] was “Active”. For the same compound, the IC50 [10] was 4.5 µM, the Activity [11] was “Active” and the Activity [12] was “Active”. For the same compound, the IC50 [13] was 2.15 µM, the Activity [14] was “Active” and the Activity [15] was “Active”. The IC50 [16] was 0.45 µM, the Activity [17] was “inactive” and the Activity [18] was 30%. For the same compound, the IC50 [19] was 17.1 µg/mL and 790 nM.

`CC[C@H](C)[C@@H]1NC(=O)[C@H](C)NC(=O)[C@H](C)NC(=O)[C@H](CO)NC(=O)[C@H]([C@@H](C)CC)NC(=O)[C@@H]2CSSC[C@@H]3NC(=O)[C@H](C(C)C)NC(=O)[C@H](CCCCN)NC(=O)[C@H](CO)NC(=O)[C@H](CCCCN)NC(=O)[C@@H]4CSSC[C@H](NC(=O)[C@H](CO)NC(=O)[C@H](CCC(=O)O)NC(=O)CNC(=O)[C@H](CSSC[C@H](NC(=O)CNC1=O)C(=O)N[C@@H](CO)C(=O)N4)NC(=O)[C@@H]1CCCN1C(=O)[C@H]([C@@H](C)CC)NC(=O)CNC(=O)[C@H](CC(N)=O)NC(=O)[C@H](CCCNC(=N)N)NC(=O)[C@H](Cc1ccc(O)cc1)NC3=O)C(=O)N[C@@H](C(C)C)C(=O)N[C@@H](Cc1c[nH]c3ccccc13)C(=O)N[C@@H]([C@@H](C)CC)C(=O)N1CCC[C@H]1C(=O)N2` [CYCLOVIOLACIN O13] (cyclo(AAIGCSCKSKVCYRNGIPCGESCVWIPCIS); disulfide 5-19, 7-23, 12-28) was tested, and the IC50 [2] was 3.36 µM, the viability at 5 µM [3] was 12.5% and the IC50 [7] was 3.07 µM. The viability at 5 µM [8] was 29.7%, the IC50 [10] was 2.57 µM and the IC50 [13] was 2.15 µM.

For `Cn1nnc2c(C(N)=O)ncn2c1=O` [TEMOZOLOMIDE], the viability at 10000 µM [20] was 32.4%, the IC50 [2] was 3190 µM and the Activity [21] was 40%. For the same compound, the viability at 100 µM [22] was 85.2%, the viability at 500 µM [23] was 41.5% and the viability at 2000 µM [24] was 57.3%. For the same compound, the Activity [25] was 10%, the IC50 [7] was 513 µM and the IC50 [10] was 2900 µM. The viability at 100 µM [26] was 96.6%, the Activity [27] was 40% and the IC50 [13] was 393 µM. The viability at 2000 µM [28] was 15.5% and the Activity [29] was 40%.
